Data on one molecule can be found in PMC11500415, “Chemical inhibition of stomatal differentiation by perturbation of the master-regulatory bHLH heterodimer via an ACT-Like domain” (Nature Communications, 2024).

Experiment [1] has as its target T1, MUTE_ACTL (Arabidopsis thaliana, UniProt Q9M8K6).
T1 construct: MUTE-ACTL (114-202); made in house; host or cells: E. coli BL21
Description: BLI direct binding. As to conditions: for Kd: MUTE_ACTL. Also on record: species or system A. thaliana. From the text: (§1) A. thaliana SCRM (1-494), ΔNSPCH (98-364), MUTE (1-202), ΔNFAMA (190-414), MUTEΔC (1-114), MUTER133A_R134A, MUTEE162A_E163A, MUTER133A_R134A_E162A_E163A, SCRM-ACTL (405-494), MUTE-ACTL (114-202), SPCH-ACTL (285-364), FAMA-ACTL (306-414), MUTE_ACTLR133A_R134A, MUTE_ACTLE162A_E163A, MUTE_ACTLR133A_R134A_E162A_E163A were cloned into pGEX-4T-1 vector with an N-terminal GST tag and a thrombin cleavage sequence. For protein expression, the constructs were transformed into E. coli strain BL21. For each transformant, a single colony was selected and incubated in 10 ml LB liquid media. The overnight-incubated E. coli suspensions were transferred to 1 L LB medium and incubated at 37 °C for around 2 h until the OD600 reached 0.4–0.6. The isopropyl β-D-1-thiogalactopyranoside ([…] of final concentration) was added to the cultures and the strains were incubated at 22 °C for a further 18 h. GST-fused proteins were purified using glutathione agarose resin. The soluble portion of the cell lysate was loaded onto a GST-Sepharose column. Nonspecifically bound proteins were removed by washing the column with 20 mM Tris pH 8.0, 200 mM NaCl. The bound GST-fused protein was eluted with 10 mm glutathione and 20 mM Tris pH 8.0, 200 mM NaCl. The GST-fused proteins were exchanged with phosphate-buffered saline buffer, and then the solution was treated with 50 μg of thrombin for 10–12 h at 16 ^οC. The GST portion of the protein was cleaved during thrombin digestion, and then the whole solution was reloaded onto the glutathione S-transferase column to obtain pure protein. The purified proteins were further purified by gel filtration on a Superdex-200 (GE) column using fast protein liquid chromatography and phosphate buffer (pH 7.2) as the eluent. The purity of the protein was checked by SDS-PAGE. For detailed lists of oligo DNA and plasmid information, see Supplementary Tables 5, 6, respectively.
The binding affinities of SCRM to MUTE / MUTER133A_R134A / MUTEE162A_E163A / MUTER133A_R134A_E162A_E163A in presence and absence of Stomidazolone (3) and its analogues (AYSJ1059 (5) and AYSJ1061 (6)), and Stomidazolone / AYSJ1059 / AYSJ1061 interactions with GST-tagged SCRM, MUTE, SPCH, FAMA, MUTE ΔACTL, MUTE_ACTL, SCRM_ACTL, SPCH_ACTL and FAMA_ACTL, MUTER133A_134A, MUTEE162A_E163A, MUTER133A_R134A_E162A_E163A were measured using the Octet Red96 system (ForteBio, Pall Life Sciences) following the manufacturer’s protocols. The optical probes coated with anti-GST were first loaded with 500 nM GST tagged proteins before kinetic binding analyses. The experiment was performed in 96-well plates maintained at 30 °C. Each well was loaded with 200 μL reaction volume for the experiment. The binding buffer used in these experiments contained 1× PBS supplemented with 2% DMSO, 0.02% Tween20. […] There was no binding of the analytes to the unloaded probes as shown by the control wells. Binding kinetics to all seven concentrations of the analytes were measured simultaneously using default parameters on the instrument. The data were analyzed using the Octet data analysis software. The association and dissociation curves were fit with the 1:1 homogeneous ligand model. The kobs (observed rate constant) values were used to calculate Kd, with steady-state analysis of the direct binding. See Supplementary Table 3 for details.

In experiment [2] the target is T1, MUTE_ACTL. As to the kind of experiment: ITC direct binding. The conditions noted are these: ITC (Supplementary Fig. 8, Supplementary Table 2). Also on record: species or system A. thaliana.
From the text: as §1
Binding of the small molecule Stomidazolone (3) to SCRM, MUTE, SPCH, FAMA, MUTEΔC, MUTE_ACTL, SCRM_ACTL, SPCH_ACTL and FAMA_ACTL, MUTER133A_R134A, MUTEE162A_E163A, MUTER133A_R134A_E162A_E163A, as well as SCRM binding to MUTE in the presence and absence of Stomidazolone (3) / AYSJ1059 (5) /AYSJ1061 (6) was characterized at 30 °C using a Malvern PEAQ-ITC microcalorimeter. All the protein samples were dialyzed overnight using PBS buffer containing 2% DMSO and 1 mM DTT. Stomidazolone was dissolved in PBS buffer containing 2% DMSO and 1 mM DTT. Titrations were performed by injecting 1 × 0.5-μL and 12 × 3-μL or 1 × 0.75-μL and 18 × 2-μL or 1 × 0.2-μL and 25 × 1.3-μL aliquots of 1 mM Stomidazolone / AYSJ1059 / AYSJ1061 to 5-30 μM of protein in PBS buffer pH 7.4, containing 2% DMSO and 1 mM DTT. All titrations were carried out at least twice. The raw data were corrected using buffer and protein controls and analyzed using the software supplied by the manufacturer. See Supplementary Table 3 for details.

SMILES strings stand for the structures. Like-named read-outs stand apart in the source and are kept apart here.

T1 sequence (Q9M8K6 114-202): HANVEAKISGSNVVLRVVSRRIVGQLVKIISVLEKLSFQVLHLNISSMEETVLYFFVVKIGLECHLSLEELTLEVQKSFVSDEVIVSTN

For the molecule `Cc1ccc(C2(NS(=O)(=O)c3ccccc3)N=C(c3ccccc3)C(=O)N2S(=O)(=O)c2ccccc2)cc1` (stereo not shown) [AYSJ1059], the “binding to MUTE by BLI (in words)” value in experiment [1] (BLI (Supplementary Table 3)) is recorded as “substantially weak binding”. Also, the Kd in experiment [1] (BLI steady state, read-out: KD (SS)) was 126 ± 13.5 µM; in experiment [1] (BLI, read-out: KD), 123 ± 6.5 µM. The “binding to MUTE analyzed by ITC (in words)” value in experiment [2] is “no binding”.

For orientation: Kd means the constant that tells how readily two partners part at equilibrium.
